Data taken from patent publication US8435553B2, “Elastin stabilization of connective tissue” (Clemson University Research Foundation (CURF), priority 2005, dated 2013).
Several values for one entry are separate records, joined by “and”; a condition that tells them apart may be missing. Identical values can stand only once. Like-named read-outs stand apart in the source and are kept apart here. Each block holds one compound with its values, some of them ahead of it.

Tests used:
[1] = test system: Rat skin fibroblasts
Method: (§1) Fresh porcine aorta was treated with Glut, Glut/TA, or Glut/PGG, as described above. After thorough rinsing (3x, 1 hr. each, 100 mL ddH2O), samples were orbitally shaken at 120 rpm 37° C. for 14 days in a PBS/azide buffer, pH7.4, for extraction of soluble, cytotoxic compounds (50 mL per 6 tissues samples, each 4 mm×4 mm).
(§2) Rat skin fibroblasts were seeded onto 24-well plates (50,000 cells/well) in 1 mL DMEM supplemented with 10% FBS and 1% penicillin-streptomycin. Cells were maintained in a humidified incubator at 37° C. with 10% CO2. After 24 hours, the media was removed and replaced with one of the PBS/azide solutions diluted 10-fold in fresh media. As control, a sample was held in buffer alone (negative control) and also in a 70% ethanol solution (positive control). Effectively, 100 μL of the ‘test solution’ was added to 900 μL of media for each well (except in the case of ethanol, in which no media was added). The cells were incubated with these solutions for 2 hours and then rinsed with 1 mL PBS. Viability of the cells was then assessed using a qualitative LIVE/DEAD® staining fluorescent stain. In addition, a quantitative measurement, MTS, was used to measure the activity of cell enzymes. Specifically, the reagent was diluted 5-fold in media, then applied to the cells for 90 minutes. A portion of the resulting solutions ([…]) was transferred to a 96-well plate and read at an absorbance of 490 nm. Samples were blanked to a well containing media and MTS reagent with no cells.
Micrographs of cells introduced to LIVE/DEAD® were taken 45 minutes after exposure. Results are shown in FIGS. 6A-6E, in which living cells appear as light spots on the dark background, and dead cells appear as darker gray spots.

[2] = test system: Rat skin fibroblasts; remark: listed apart in the source
Method: as §1, §2

[3] = test system: porcine aorta; assay: Tensile stress/strain test, elastic modulus of aorta; details: slope of stress-strain curve between 0 and 5% strain; n = 4
Method: To evaluate mechanical properties, aorta was cut to form dumbbell shapes approximately 40 mm in length, approximately 10 mm wide at each end, and approximately 5 mm wide at the center, with the long axis of the dumbbell shape being parallel to the circumferential direction of the aorta. Tensile properties of the samples were tested using standard stress/strain analysis on a Synergie 100 testing apparatus (MTS Systems Corporation, Eden Prairie, Minn.) operated at a constant uniaxial velocity of 0.2 mm/sec using a 10-Newton load cell to determine elastic modulus of the samples. Elastic modulus was calculated as the slope of the stress-strain curve between 0 and 5% strain.

[4] = test system: porcine aorta; assay: Recoil of aortic rings by opening angle measurement; details: aortic rings cut radially, relaxed 15 minutes; n = 5
Method: Fresh porcine aorta was cut across the diameter into continuous rings approximately 1 cm in height as illustrated in FIG. 5A and treated with glutaraldehyde (Glut treatment). For this treatment, aortic ring samples were first fixed with 0.6% glutaraldehyde in 50 mM Hepes buffered saline, pH 7.4, overnight at room temperatures, followed by 0.2% glutaraldehyde in the same buffer for 7 days at room temperatures.
A portion of the Glut-treated rings were then treated with 0.3% pentagalloylglucose (PGG). PGG was first prepared from TA as outlined by Hagerman, et al. (Hagerman , Zhao Y., and Johanson J., “Methods for determination of condensed and hydrolyzable tannins,” Shahadi, F., Ed., Antinutrients and Phytochemicals in Foods, Wash., D.C., American Chemical Society, p. 209-222 (1997)). Specifically, TA was methanolyzed using a solution of methanol and acetate buffer. After methanolysis, the methanol was removed by rotary evaporation and replaced with ddH2O. A series of separate extractions involving diethyl ether and ethyl acetate, along with rinses of dilute methanol and ddH2O was performed to purify the PGG. The resulting precipitate was centrifuged and lyophilized to form a solid. […]
Samples were then tested for ability to recoil using opening angle measurements. […] Using these lines, the opening angles of the aortic rings were calculated. […]

[5] = test system: rat abdominal aorta; assay: CaCl2 chemical injury aneurysm model on rat abdominal aorta; assay type: in vivo, Sprague-Dawley rats
Description: In vivo use of the disclosed agents was examined. The aneurysm model used was based on the perivascular application of a high concentration calcium chloride (CaCl2) solution, a method originally used to induce aneurysms in rabbit carotid arteries (see, Gertz SD, Kurgan A, Eisenberg D. J Clin Invest 1988;81(3):649-656.) and has more recently been used on abdominal aorta of rodents. (See, e.g., Freestone T., et al., Arterioscler Thromb Vasc Biol 1995;15(8):1145-1151. Freestone T., et al., Arterioscler Thromb Vasc Biol 1997;17(1):10-17. Tambiah J., et al. Br J Surg 2001;88(7):935-940.) This model results in a localized mild insult to the arterial tissue. In most studies, a significant increase in aortic diameter (indicative of aneurysm formation) was observed after 3 to 6 weeks post-injury. For this example, the CaCl2-based chemical injury was performed on rat aorta.
(§3) Adult male Sprague-Dawley rats were placed under general anesthesia (2% to 3% isoflurane), allowing for a midline incision along the abdomen in order to expose the infrarenal abdominal aorta. Once exposed, the abdominal aorta was treated with 0.03% PGG solution in saline for 15 minutes using a strip (1.5 cm×0.5 cm) of presoaked 8-ply sterile cotton gauze. The area was then briefly rinsed with saline, allowing induction of chemical injury (0.5 M CaCl2, delivered with gauze for 15 minutes). As controls, rat aortas were treated with physiological saline for 15 minutes, rinsed, and then subjected to calcium chloride. After treating with CaCl2, the gauze was removed and the abdominal cavity was closed with subcutaneous suture, followed by surgical staples. The rats were anesthetized after 28 days, at which point the abdominal aorta was again exposed. Digital photographs (before PGG application at day 0, as well as after 28 days) were used to measure percent increases in diameter after the 28 day period for each rat. Aortic tissue was collected for analysis.
Following superficial examination of the aortic segments, the segments were analyzed via desmosine analysis for elastin content. […]

[6] = Long-term binding of tannins to aortic tissue (extraction from explanted aorta); assay type: in vivo, Sprague-Dawley rats
Method: as §3, with “analysis. Vessels were also analyzed to determine the long-term binding of the tannins with the tissue. Tannins were extracted from explanted aorta immediately after treatment (labeled PGG in situ on FIG. 11) and measured levels were compared to those obtained from aorta explanted 28 days following PGG treatment (labeled PGG in vivo on FIG. 11).” for “analysis.”

[7] = test system: elastase; assay: Elastase digestion of treated porcine aorta (mass loss, elastin histology); assay type: biochemical
Method: Fresh porcine aorta was cut into approximately 4 mm×4 mm squares and treated with 0.3% tannic acid (TA) (1.76 mM) in 50 mM HEPES […] buffered saline at pH 5.5 for 4 days at room temperature. A control sample was treated in mM Hepes buffered saline at pH5.5. Samples were then rinsed three times (1 hour each) in 100 mL ddH2O at room temperature and lyophilized to record dry weight. Samples (about 15-25 mg dry weight), both control and TA treated, were incubated with 1.0 mL pure elastase (20 units/ml, in 100 mM Tris, 1 mM CaCl2, 0.02% NaN3, pH 7.8 buffer) at 37° C. for 48 hours with orbital shaking at 650 rpm. Samples were then centrifuged (10000 rpm, 10 min. 4° C.) and supernatants retained to assess enzyme activity. Tissue samples were again rinsed three times (1 hour each) in 100 mL ddH2O at room temperature and lyophilized to record dry weight after elastase, and the percent of digested tissue was calculated. Elastin degradation was assessed by measuring mass loss (dry weight before and after elastase contact) and by preparation of histological slides stained with an elastin-specific stain (Voerhoff van Gieson stain).

[8] = test system: pure aortic elastin; assay: Kinetics of binding of tannic acid to pure aortic elastin; set-up: species or system porcine
Method: Ascending porcine aorta was collected fresh at a slaughterhouse and transported to the laboratory on ice. After cleaning fat and adherent tissues, aorta was cut into 2×4 mm strips and thoroughly rinsed in cold saline. Aortic elastin was purified by a sequence of extractions. Specifically, aortic strips were suspended in 100 mM sodium hydroxide (60 strips in 100 mL) and incubated for 14 hours at 37° C. with collagenase (0.5 units/mg wet tissue) in 50 mM Tris buffer, 10 mM calcium chloride, pH 8.0. The collagenase preparation was pre-adsorbed with elastin fibers to remove residual elastolytic activities. The final digestion step completely removed residual collagen, leaving pure aortic elastin.
The pure aortic elastin strips were placed in 2 mL microfuge tubes and suspended in 1.5 mL of an 8 mg % TA solution prepared in a 50 mM disodium hydrogen phosphate, 0.9% sodium chloride buffer, pH 5.5. A second group consisted of pure aortic elastin suspended in a solution containing 8 mg % TA and 16 mg % Glut in the same buffer. As controls, TA solution and the mixture of TA and Glut were incubated without elastin samples. Samples were incubated at room temperature and at defined time intervals (0, 20, 40, 60, 120, 360 minutes and 24 hours), samples were retrieved and analyzed for TA content in solution. Specifically, samples were mixed with a tungstate/phosphomolybdate reagent followed by addition of a saturated sodium carbonate solution and ddH2O. After 10 minutes at room temperature, OD at 760 nm was measured in a microplate spectrophotometer. Standard curves were constructed with TA in the range of 0-8 mg % and with TA (0-8 mg %) in mixtures with Glut (16 mg % ). Glut interference with the TA color reaction was minimal (no statistical differences found for all data points). Finally, the elastin strops were rinsed in ddH2O and lyophilized. The amount of TA bound to pure aortic elastin was calculated from the differences between initial TA concentration in solution and concentration of TA in solution after incubation with elastin strops and were expresses as micrograms of TA bound by 1 mg dry elastin. All samples were assayed in triplicate.

SMILES: CCO [EtOH, ethanol]
cell viability after exposure to extracts [1]: essentially no viable cells
Viability (live/dead assay) ([1]; 14 day tissue extract diluted 10-fold in media, 2 hours exposure): 0%
Viability (MTS assay) ([2]; 14 day tissue extract diluted 10-fold, 2 hours exposure, absorbance at 490 nm, n = 3): 0.03

SMILES: O=CCCCC=O [Glut, glutaraldehyde]
cell viability after exposure to extracts [1]: remained viable
Viability (live/dead assay) ([1]; rat, 2 h): 100%
Mean Elastic Modulus [3]: 1.28 kPa
Mean opening angle [4]: 35.9 degrees
Viability (MTS assay) ([2]; rat, 2 h): 1.04

SMILES: O=C(OC[C@H]1O[C@@H](OC(=O)c2cc(O)c(O)c(O)c2)[C@H](OC(=O)c2cc(O)c(O)c(O)c2)[C@@H](OC(=O)c2cc(O)c(O)c(O)c2)[C@@H]1OC(=O)c1cc(O)c(O)c(O)c1)c1cc(O)c(O)c(O)c1 [PGG, pentagalloylglucose]
percentage change in diameter of aortic segments ([5]; 0.03% PGG perivascular 15 minutes before CaCl2, 28 days): less than 10%
increase in diameter of aortic segments ([5]; 0.03% PGG perivascular 15 minutes before CaCl2, 28 days, n=12 per group): about 100 μm
desmosine content (elastin content) ([5]; aortic segments 28 days post-injury): about 1350 pmol desmosine/mg protein
level of tannins extracted from tissue ([6]; explanted 28 days following PGG treatment (PGG in vivo)): about 1.3 μg PGG/mg dry tissue
level of tannins extracted from tissue ([6]; explanted immediately after treatment (PGG in situ)): about 1.8 μg PGG/mg dry tissue
cytotoxicity comparison [2]: less cytotoxic than TA

TA remaining in solution, of initial TA ([8]; after 6 hours incubation with elastin): 10%
TA remaining in solution, of initial TA ([8]; at 24 hours incubation with elastin): less than 3.5%
TA bound at leveling off ([8]; rapid binding within the first 6 hours, then plateau): about 3 mg of TA/mg dry elastin
decrease of amount of TA in solution ([8]; within 1 hour of incubation with elastin, 8 mg % TA, pH 5.5): about 50%
SMILES: O=C(OC[C@H]1O[C@@H](OC(=O)c2cc(O)c(O)c(OC(=O)c3cc(O)c(O)c(O)c3)c2)[C@H](OC(=O)c2cc(O)c(O)c(OC(=O)c3cc(O)c(O)c(O)c3)c2)[C@@H](OC(=O)c2cc(O)c(O)c(OC(=O)c3cc(O)c(O)c(O)c3)c2)[C@@H]1OC(=O)c1cc(O)c(O)c(OC(=O)c2cc(O)c(O)c(O)c2)c1)c1cc(O)c(O)c(OC(=O)c2cc(O)c(O)c(O)c2)c1 [TA, tannic acid]
elastin fibers in histology (Voerhoff van Gieson stain) after elastase ([7]; 0.3% TA pre-treated aorta after elastase): fully preserved
mass lost after elastase (percent of digested tissue) ([7]; 0.3% TA pre-treatment 4 days pH 5.5, elastase 20 units/ml, 37° C., 48 hours, n=6): 4-5% and 4.33%
